Test results taken from patent US9604940B2 (Chroma Therapeutics Ltd., priority 2012, dated 2017).
pIC50: −log10 of the molar value. Where a name gives a salt, the structure may show the parent alone.

Columns and labels:
CSF1R (FMS) = biological target: T1, CSF1R (FMS) (Homo sapiens, UniProt P07333); test: CSF1R (FMS) kinase activity, Z'-LYTE biochemical assay (Invitrogen); settings: ATP at or close to Km, 60 minute reaction at room temperature, read-out: Inhibitor activity versus CSF-1
T1 construct: purchased Invitrogen (Paisley, UK)
T1 sequence (P07333 20-972): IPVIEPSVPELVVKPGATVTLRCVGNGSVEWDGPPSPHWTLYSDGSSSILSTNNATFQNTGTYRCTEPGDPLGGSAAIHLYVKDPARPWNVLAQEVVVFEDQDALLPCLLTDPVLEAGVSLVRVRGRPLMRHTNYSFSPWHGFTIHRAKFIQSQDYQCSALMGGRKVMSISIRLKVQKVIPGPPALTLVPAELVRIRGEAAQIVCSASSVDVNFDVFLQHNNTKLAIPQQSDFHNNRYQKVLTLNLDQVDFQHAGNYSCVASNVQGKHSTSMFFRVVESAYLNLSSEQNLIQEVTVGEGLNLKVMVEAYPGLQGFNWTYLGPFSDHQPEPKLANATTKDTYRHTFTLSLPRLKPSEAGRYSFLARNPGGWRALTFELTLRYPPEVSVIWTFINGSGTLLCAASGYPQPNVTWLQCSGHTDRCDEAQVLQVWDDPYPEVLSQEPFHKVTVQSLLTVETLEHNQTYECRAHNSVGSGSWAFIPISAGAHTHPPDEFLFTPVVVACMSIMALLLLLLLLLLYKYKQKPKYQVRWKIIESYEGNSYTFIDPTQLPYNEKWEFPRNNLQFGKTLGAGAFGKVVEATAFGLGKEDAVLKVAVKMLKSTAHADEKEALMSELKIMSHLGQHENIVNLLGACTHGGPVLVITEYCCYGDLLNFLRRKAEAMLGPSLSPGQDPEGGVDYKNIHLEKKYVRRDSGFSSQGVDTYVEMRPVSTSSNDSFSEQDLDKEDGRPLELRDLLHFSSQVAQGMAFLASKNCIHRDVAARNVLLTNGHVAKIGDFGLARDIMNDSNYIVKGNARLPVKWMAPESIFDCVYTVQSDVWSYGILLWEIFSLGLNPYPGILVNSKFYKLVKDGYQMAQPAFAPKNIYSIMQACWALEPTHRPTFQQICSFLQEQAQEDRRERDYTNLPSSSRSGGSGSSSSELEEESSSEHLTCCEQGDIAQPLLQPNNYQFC
Protocol: CSF1R (FMS) Kinase Activity
The ability of compounds to inhibit CSF1R (FMS) kinase activity was measured in an assay performed by Invitrogen (Paisley, UK). The Z′-LYTE™ biochemical assay employs a fluorescence-based, coupled-enzyme format and is based on the differential sensitivity of phosphorylated and non-phosphorylated peptides to proteolytic cleavage. The peptide substrate is labelled with two fluorophores—one at each end—that make up a FRET pair. In the primary reaction, the kinase transfers the gamma-phosphate of ATP to a single […] residue in a synthetic FRET-peptide. In the secondary reaction, a site-specific protease recognizes and cleaves non-phosphorylated FRET-peptides. Phosphorylation of FRET-peptides suppresses cleavage by the Development Reagent. Cleavage disrupts FRET between the donor (i.e. coumarin) and acceptor (i.e. fluorescein) fluorophores on the FRET-peptide, whereas uncleaved, phosphorylated FRET-peptides maintain FRET. A […] method, which calculates the ratio (the Emission Ratio) of donor emission to acceptor emission after excitation of the donor fluorophore at 400 nm, is used to quantitate reaction progress.
The final 10 μL Kinase Reaction consists of 0.12-12.3 ng CSF1R (FMS), 2 μM Tyr 01 Peptide and ATP in 50 mM HEPES pH 7.5, 0.01% BRIJ-35, 10 mM MgCl2, 1 mM EGTA. The assay is performed at an ATP concentration at, or close to, the Km. After the 60 minute Kinase Reaction incubation at room temperature, 5 μL of a 1:256 dilution of Development Reagent is added. The assay plate is incubated for a further 60 minutes at room temperature and read on a fluorescence plate reader.
Duplicate data points are generated from a ⅓ log dilution series of a stock solution of test compound in DMSO. Nine dilutions steps are made from a top concentration of 10 mM, and a ‘no compound’ blank is included. Data is collected and analysed using XLfit software from IDBS. The dose response curve is curve fitted to model number 205 (sigmoidal dose-response model). From the curve generated, the concentration giving 50% inhibition is determined and reported.

MCP-1 = test: MCSF-stimulation of human whole blood, MCP-1 levels by sandwich ELISA; assay type: cell-based; settings: inhibitor 2 hours before MCSF 50 ng/ml, 22 hrs, MCP-1 in cell-free supernatants, read-out: Inhibitor activity versus MCP-1
Protocol: Macrophage Colony-Stimulating Factor (MCSF)-Stimulation of Human Whole Blood
Whole blood was taken by venous puncture using heparinised vacutainers (Becton Dickinson) and diluted in an equal volume of RPMI1640 tissue culture media (Sigma). 100 μl was plated in V-bottomed 96 well tissue culture treated plates. 2 hours after the addition of the inhibitor in 100 μl of RPMI1640 media, the blood was stimulated with MCSF (Peprotech: #300-25-10 uG) at a final concentration of 50 ng/ml and incubated at 37° C. in 5% CO2 for 22 hrs. MCP-1 levels were measured from cell-free supernatants by sandwich ELISA developed from MCP-1/CCL2 Duoset (R&D Systems #DY279). Additional reagents required for ELISA were purchased from Sigma, (BSA: A3059, 10×PBS: D1408, Tween20: P5927) R&D Systems, (colour reagent: #DY999 and stop solution: #DY994) and Costar (96-well EIA plates: #2592). Assays were carried out following the manufacturer's instructions with the following modifications: Cell-free supernatants were diluted 30:70 in reagent diluent before assay. All incubations except capture antibody were carried out with shaking at 550 rpm. 3 washes were carried out between steps, and incubation times were blocking 1.5 hr, sample/standard and detection antibody incubations 2 hr, HRP incubation 30 min, colour development 20 min. • IC50 values were allocated to one of five ranges as follows: • Range A: IC50<100 nM • Range B: 100 nM<IC50<300 nM • Range C: 300 nM<1050<1000 nM • Range D: 1000 nM<IC50<5000 nM • Range E: IC50>5000 nM • NT=not tested

SMILES | pIC50 (CSF1R (FMS)) | pIC50 (MCP-1)
CC(C)C[C@H](NCc1ccc(-c2cnc(N)c(NCc3c(Cl)cccc3Cl)n2)cc1)C(=O)OC(C)(C)C [Example 13, tert-Butyl N-(4-{5-amino-6-[(2,6-dichlorobenzyl)amino]pyrazin-2-yl}benzyl)-L-leucinate] | 5.30 to 6.00 | 
CC(C)C[C@H](NCc1cccc(-c2cnc(N)c(NCc3c(Cl)cccc3Cl)n2)c1)C(=O)OC(C)(C)C [Example 39, tert-Butyl N-(3-{5-amino-6-[(2,6-dichlorobenzyl)amino]pyrazin-2-yl}benzyl)-L-leucinate] | < 5.30 | < 5.30
CC(C)(C)OC(=O)C1CN(C(=O)c2ccc(-c3cnc(N)c(NCc4c(Cl)cccc4Cl)n3)cc2)CCN1 (stereo not drawn) [Example 6, tert-Butyl 4-(4-{5-amino-6-[(2,6-dichlorobenzyl)amino]pyrazin-2-yl}benzoyl)piperazine-2-carboxylate] | 6.52 to 7.00 | 6.00 to 6.52
CC(C)(C)OC(=O)C(C)(C)NCc1cccc(-c2cnc(N)c(NCc3c(Cl)cccc3Cl)n2)c1 [Example 41, tert-Butyl N-(3-{5-amino-6-[(2,6-dichlorobenzyl)amino]pyrazin-2-yl}benzyl)-2-methylalaninate formate salt] | 5.30 to 6.00 | 
CC(C)(C)OC[C@H](NCc1cccc(-c2cnc(N)c(NCc3c(Cl)cccc3Cl)n2)c1)C(=O)OC1CCCC1 [Example 43, Cyclopentyl N-(3-{5-amino-6-[(2,6-dichlorobenzyl)amino]pyrazin-2-yl}benzyl)-O-tert-butyl-L-serinate] | < 5.30 | < 5.30
CC(C)(C)OC(=O)[C@H]1CC(NCc2ccc(-c3cnc(N)c(NCc4c(Cl)cccc4Cl)n3)cc2)CCN1 (stereo partly drawn) [Example 21, tert-Butyl (2R)-4-[(4-{5-amino-6-[(2,6-dichlorobenzyl)amino]pyrazin-2-yl}benzyl)amino]piperidine-2-carboxylate] | > 7.00 | 6.00 to 6.52
Nc1ncc(-c2cnn(CC(=O)NC3CCN[C@@H](C(=O)OC4CCCC4)C3)c2)nc1NCc1c(Cl)cccc1Cl (stereo partly drawn) [Example 53, Cyclopentyl (2R)-4-{[(4-{5-amino-6-[(2,6-dichlorobenzyl)amino]pyrazin-2-yl}-1H-pyrazol-1-yl)acetyl]amino}piperidine-2-carboxylate] | 6.52 to 7.00 | 
Nc1ncc(-c2ccc(CNC3CCN[C@@H](C(=O)OC4CCCC4)C3)cc2)nc1NCc1c(Cl)cccc1Cl (stereo partly drawn) [Example 7, Cyclopentyl (2R)-4-[(4-{5-amino-6-[(2,6-dichlorobenzyl)amino]pyrazin-2-yl}benzyl)amino]piperidine-2-carboxylate] | > 7.00 | 6.52 to 7.00
CC(C)(C)OC(=O)[C@H]1CC(NCc2cccc(-c3cnc(N)c(NCc4c(Cl)cccc4Cl)n3)c2)CCN1 (stereo partly drawn) [Example 46, tert-Butyl (2R)-4-[(3-{5-amino-6-[(2,6-dichlorobenzyl)amino]pyrazin-2-yl}benzyl)amino]piperidine-2-carboxylate] | > 7.00 | 6.00 to 6.52
Nc1ncc(-c2ccc(CN3CCN[C@H](C(=O)OC4CCCC4)C3)cc2)nc1NCc1c(Cl)cccc1Cl [Example 10, Cyclopentyl (2S)-4-(4-{5-amino-6-[(2,6-dichlorobenzyl)amino]pyrazin-2-yl}benzyl)piperazine-2-carboxylate] | 5.30 to 6.00 | > 7.00
CC(C)(C)OC(=O)[C@H]1CC(NCc2ccc(-c3cnc(N)c(NCc4c(F)cccc4F)n3)cc2)CCN1 (stereo partly drawn) [Example 24, tert-Butyl (2R)-4-[(4-{5-amino-6-[(2,6-difluorobenzyl)amino]pyrazin-2-yl}benzyl)amino]piperidine-2-carboxylate] | 6.00 to 6.52 | 
Nc1ncc(-c2cccc(C(=O)NC3CCN[C@@H](C(=O)OC4CCCC4)C3)c2)nc1NCc1c(Cl)cccc1Cl (stereo partly drawn) [Example 32, Cyclopentyl (2R)-4-[(3-{5-amino-6-[(2,6-dichlorobenzyl)amino]pyrazin-2-yl}benzoyl)amino]piperidine-2-carboxylate] | 6.52 to 7.00 | 5.30 to 6.00
Nc1ncc(-c2cccc(CN3CCN[C@H](C(=O)OC4CCCC4)C3)c2)nc1NCc1c(Cl)cccc1Cl [Example 36, Cyclopentyl (2S)-4-(3-{5-amino-6-[(2,6-dichlorobenzyl)amino]pyrazin-2-yl}benzyl)piperazine-2-carboxylate] | 6.00 to 6.52 | 6.52 to 7.00
CN(C(=O)c1ccc(-c2cnc(N)c(NCc3c(Cl)cccc3Cl)n2)cc1)C1CCN[C@@H](C(=O)OC2CCCC2)C1 (stereo partly drawn) [Example 2] | 6.52 to 7.00 | 6.00 to 6.52
CC(C)C[C@H](NCc1ccc(-c2cnc(N)c(NCc3c(F)cccc3F)n2)cc1)C(=O)OC1CCCC1 [Example 15, Cyclopentyl N-(4-{5-amino-6-[(2,6-difluorobenzyl)amino]pyrazin-2-yl}benzyl)-L-leucinate] | < 5.30 | 
CC(C)C[C@H](NCc1ccc(-c2cnc(N)c(NCc3c(Cl)cccc3Cl)n2)cc1)C(=O)OC1CCCC1 [Example 12, Cyclopentyl N-(4-{5-amino-6-[(2,6-dichlorobenzyl)amino]pyrazin-2-yl}benzyl)-L-leucinate] | < 5.30 | 
CC(C)(C)OC(=O)[C@H]1CC(NC(=O)c2ccc(-c3cnc(N)c(NCc4c(Cl)cccc4Cl)n3)cc2)CCN1 (stereo partly drawn) [Example 4, tert-Butyl (2R)-4-[(4-{5-amino-6-[(2,6-dichlorobenzyl)amino]pyrazin-2-yl}benzoyl)amino]piperidine-2-carboxylate] | 6.52 to 7.00 | 
Nc1ncc(-c2ccc(CN3CCNC(C(=O)OC4CCCC4)C3)nc2)nc1NCc1c(Cl)cccc1Cl (stereo not drawn) [Example 59, Cyclopentyl 4-[(5-{5-amino-6-[(2,6-dichlorobenzyl)amino]pyrazin-2-yl}pyridin-2-yl)methyl]piperazine-2-carboxylate] | 6.52 to 7.00 | 
Nc1ncc(-c2cccc(CCN3CCNC(C(=O)OC4CCCC4)C3)c2)nc1NCc1c(Cl)cccc1Cl (stereo not drawn) [Example 52, Cyclopentyl 4-[2-(3-{5-amino-6-[(2,6-dichlorobenzyl)amino]pyrazin-2-yl}phenyl)ethyl]piperazine-2-carboxylate] |  | 6.52 to 7.00
CC(C)C[C@H](NCc1ccc(-c2cnc(N)c(NCc3c(F)cccc3F)n2)cc1)C(=O)OC(C)(C)C [Example 16, tert-Butyl N-(4-{5-amino-6-[(2,6-difluorobenzyl)amino]pyrazin-2-yl}benzyl)-L-leucinate] | 5.30 to 6.00 | 
CC(C)CN(Cc1ccc(-c2cnc(N)c(NCc3c(Cl)cccc3Cl)n2)cc1)C1CCN[C@@H](C(=O)OC2CCCC2)C1 (stereo partly drawn) [Example 29, Cyclopentyl (2R)-4-[(4-{5-amino-6-[(2,6-dichlorobenzyl)amino]pyrazin-2-yl}benzyl)(2-methylpropyl)amino]piperidine-2-carboxylate] |  | 5.30 to 6.00
Nc1ncc(-c2ccc(CNC3CCN[C@@H](C(=O)OC4CCCC4)C3)cc2)nc1NCc1c(F)cccc1Cl (stereo partly drawn) [Example 17, Cyclopentyl (2R)-4-[(4-{5-amino-6-[(2-chloro-6-fluorobenzyl)amino]pyrazin-2-yl}benzyl)amino]piperidine-2-carboxylate] | > 7.00 | 
CC(C)(C)OC(=O)[C@H]1CC(NC(=O)Cn2cc(-c3cnc(N)c(NCc4c(Cl)cccc4Cl)n3)cn2)CCN1 (stereo partly drawn) [Example 54, tert-Butyl (2R)-4-{[(4-{5-amino-6-[(2,6-dichlorobenzyl)amino]pyrazin-2-yl}-1H-pyrazol-1-yl)acetyl]amino}piperidine-2-carboxylate] | 6.52 to 7.00 | 
